Measurements published in PMC8648761, “Reductive inactivation of the hemiaminal pharmacophore for resistance against tetrahydroisoquinoline antibiotics” (Nature Communications, 2021).

What was measured:
SfmC = target: T1, SfmC (Streptomyces lavendulae, UniProt B0CN27); experiment: MS of dual Pictet-Spengler product […]; assay type: biochemical; details: 1 mM substrate, 0.5 mM myristoyl-Ala-glycinaldehyde, 1 mM ATP, MgCl2, MnCl2, NADH, HEPES pH 7.0, 30 C, 2 h
T1 construct: NRPS

NapW [1] = target: T2, NapW (Streptomyces lusitanus, UniProt S4TKM8); experiment: X-ray crystal structure (co-crystallisation); assay type: binding; details: co-crystallised with 5 mM NADPH; modelled as NADP+; Rossmann fold site
T2 construct: recombinant in E. coli BL21(DE3), His-tagged, Ni-NTA (pET-28a or pET-37b)
T2 sequence (S4TKM8 entry or part of it): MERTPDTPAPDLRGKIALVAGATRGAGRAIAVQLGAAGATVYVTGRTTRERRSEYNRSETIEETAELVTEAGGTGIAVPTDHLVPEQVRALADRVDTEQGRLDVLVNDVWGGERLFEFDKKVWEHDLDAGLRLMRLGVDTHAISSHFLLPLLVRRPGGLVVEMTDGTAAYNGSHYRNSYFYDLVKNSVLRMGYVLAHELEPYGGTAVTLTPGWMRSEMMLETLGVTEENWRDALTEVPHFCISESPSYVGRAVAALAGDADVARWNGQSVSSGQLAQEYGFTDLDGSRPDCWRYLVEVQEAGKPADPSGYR

homO1a = target: T3, homO1a (Streptomyces lavendulae, UniProt A0A895ZRD1); experiment: HPLC and MS of reduction to […]; assay type: biochemical; details: […] ET-[…] NADPH, Tris-HCl pH […] C, […] h
T3 sequence (A0A895ZRD1 1-325): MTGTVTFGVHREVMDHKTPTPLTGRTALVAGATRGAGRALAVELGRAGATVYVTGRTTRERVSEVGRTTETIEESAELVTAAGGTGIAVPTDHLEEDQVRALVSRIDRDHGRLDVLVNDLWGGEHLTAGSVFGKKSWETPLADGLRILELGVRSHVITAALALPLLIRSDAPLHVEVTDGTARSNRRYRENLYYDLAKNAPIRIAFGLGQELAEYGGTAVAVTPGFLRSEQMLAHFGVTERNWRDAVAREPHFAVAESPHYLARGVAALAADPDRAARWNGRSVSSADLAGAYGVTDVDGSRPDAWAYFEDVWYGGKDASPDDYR

SfmO1 = SfmO1 (Streptomyces lavendulae, UniProt B0CN12); experiment: HPLC and MS of reduction to […]; assay type: biochemical; details: 290 uM ET-743, 1 mM NADPH, Tris-HCl pH 8.0, 30 C, 8 h
Sequence of SfmO1 (B0CN12 entry or part of it): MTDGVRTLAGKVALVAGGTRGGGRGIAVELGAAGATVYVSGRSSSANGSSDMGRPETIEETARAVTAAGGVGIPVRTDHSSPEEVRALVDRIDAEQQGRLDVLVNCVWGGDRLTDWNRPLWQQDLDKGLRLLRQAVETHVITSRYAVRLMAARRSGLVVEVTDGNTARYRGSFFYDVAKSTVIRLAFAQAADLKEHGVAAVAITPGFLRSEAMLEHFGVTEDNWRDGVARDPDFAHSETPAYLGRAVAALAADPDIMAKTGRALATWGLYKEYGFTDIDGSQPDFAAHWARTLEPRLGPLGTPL

SDR-Cs = target: T4, SDR-Cs (Chlorella sorokiniana, UniProt A0A2P6TRY4); experiment: HPLC of reduction to […]; assay type: biochemical; details: 290 uM ET-743, 1 mM NADPH, Tris-HCl pH 8.0, 30 C, 8 h
T4 construct: gene C2E21_4667; recombinant in E. coli BL21(DE3), His-tagged
T4 sequence (A0A2P6TRY4 entry or part of it): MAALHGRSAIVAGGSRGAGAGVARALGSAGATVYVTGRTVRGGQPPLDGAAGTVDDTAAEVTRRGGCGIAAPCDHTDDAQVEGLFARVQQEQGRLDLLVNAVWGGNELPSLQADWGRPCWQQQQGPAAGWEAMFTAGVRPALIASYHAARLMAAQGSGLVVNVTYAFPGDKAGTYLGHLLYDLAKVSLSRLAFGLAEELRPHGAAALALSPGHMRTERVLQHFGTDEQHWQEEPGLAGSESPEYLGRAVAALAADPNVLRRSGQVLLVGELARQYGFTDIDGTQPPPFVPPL

homW = target: T5, homW (Streptomyces lusitanus, UniProt A0A896A0X3); experiment: HPLC and MS of reduction to […]; assay type: biochemical; details: […] ET-[…] NADPH, Tris-HCl pH […] C, […] h
T5 sequence (A0A896A0X3 1-304): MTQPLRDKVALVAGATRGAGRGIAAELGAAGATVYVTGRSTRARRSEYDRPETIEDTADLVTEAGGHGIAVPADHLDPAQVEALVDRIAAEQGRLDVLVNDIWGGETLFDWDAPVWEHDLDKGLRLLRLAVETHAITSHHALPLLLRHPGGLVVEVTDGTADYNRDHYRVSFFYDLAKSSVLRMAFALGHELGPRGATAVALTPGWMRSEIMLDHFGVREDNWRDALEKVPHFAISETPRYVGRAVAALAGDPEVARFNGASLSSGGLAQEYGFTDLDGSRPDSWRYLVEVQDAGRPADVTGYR

homO1b = target: T6, homO1b (Streptomyces lavendulae, UniProt A0A896A5A8); experiment: HPLC and MS of reduction to […]; assay type: biochemical; details: […] ET-[…] NADPH, Tris-HCl pH […] C, […] h
T6 sequence (A0A896A5A8 1-308): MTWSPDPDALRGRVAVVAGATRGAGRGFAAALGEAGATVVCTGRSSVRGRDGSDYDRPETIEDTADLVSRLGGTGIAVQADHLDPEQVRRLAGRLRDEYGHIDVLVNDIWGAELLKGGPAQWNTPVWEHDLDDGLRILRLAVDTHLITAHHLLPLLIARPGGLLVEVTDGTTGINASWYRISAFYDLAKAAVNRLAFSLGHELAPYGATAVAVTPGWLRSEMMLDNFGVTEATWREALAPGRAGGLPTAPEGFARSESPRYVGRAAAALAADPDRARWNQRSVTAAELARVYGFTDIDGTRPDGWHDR

[2] = system: T7, SDR-Rm (Rhizobium mesoamericanum); experiment: HPLC of reduction to […]; assay type: biochemical; details: […] ET-[…] NADPH, Tris-HCl pH […] C, […] h
T7 construct: recombinant in E. coli BL21(DE3), His-tagged
T7 sequence (Z9SGJ4VC86 1-304): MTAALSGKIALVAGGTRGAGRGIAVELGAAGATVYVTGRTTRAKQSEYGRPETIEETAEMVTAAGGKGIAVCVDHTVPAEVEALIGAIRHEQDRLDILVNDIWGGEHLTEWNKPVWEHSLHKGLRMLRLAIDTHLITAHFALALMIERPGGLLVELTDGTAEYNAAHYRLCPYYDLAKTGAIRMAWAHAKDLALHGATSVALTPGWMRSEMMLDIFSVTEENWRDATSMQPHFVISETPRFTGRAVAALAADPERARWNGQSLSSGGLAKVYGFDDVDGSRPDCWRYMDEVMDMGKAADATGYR

SDR-Pb = target: T8, SDR-Pb (Paenibacillus rhizosphaerae, UniProt A0A1R1EZ79); experiment: HPLC of reduction to […]; assay type: biochemical; details: 290 uM ET-743, 1 mM NADPH, Tris-HCl pH 8.0, 30 C, 8 h
T8 construct: gene BK138_00365; recombinant in E. coli BL21(DE3), His-tagged
T8 sequence (A0A1R1EZ79 entry or part of it): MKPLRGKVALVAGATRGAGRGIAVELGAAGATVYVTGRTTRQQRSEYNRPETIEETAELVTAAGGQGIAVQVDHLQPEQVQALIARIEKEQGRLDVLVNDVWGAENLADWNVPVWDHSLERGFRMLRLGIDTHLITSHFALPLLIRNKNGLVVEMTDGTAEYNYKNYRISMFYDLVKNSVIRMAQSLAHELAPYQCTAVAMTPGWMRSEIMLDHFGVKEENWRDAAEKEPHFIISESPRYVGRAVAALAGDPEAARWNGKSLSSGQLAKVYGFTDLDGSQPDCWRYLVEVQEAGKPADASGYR

SDR-Mb = target: T9, SDR-Mb (Myxococcales bacterium, UniProt A0A1M3NHK2); experiment: HPLC of reduction to […]; assay type: biochemical; details: […] ET-[…] NADPH, Tris-HCl pH […] C, […] h
T9 construct: recombinant in E. coli BL21(DE3), His-tagged
T9 sequence (A0A1M3NHK2 1-336): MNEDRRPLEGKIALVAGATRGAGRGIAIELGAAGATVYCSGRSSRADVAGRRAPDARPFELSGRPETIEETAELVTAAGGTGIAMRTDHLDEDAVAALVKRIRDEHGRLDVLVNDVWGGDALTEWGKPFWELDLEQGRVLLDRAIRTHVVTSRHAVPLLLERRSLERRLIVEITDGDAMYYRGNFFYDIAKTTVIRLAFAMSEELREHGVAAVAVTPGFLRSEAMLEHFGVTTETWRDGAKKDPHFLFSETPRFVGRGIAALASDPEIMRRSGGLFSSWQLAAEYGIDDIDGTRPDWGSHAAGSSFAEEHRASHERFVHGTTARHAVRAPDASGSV

NapW [3] = target: T2, NapW; experiment: HPLC and MS of reduction to […]; assay type: biochemical; details: 290 uM ET-743, 1 mM NADPH, Tris-HCl pH 8.0, 30 C, 8 h

T1 sequence (B0CN27 entry or part of it): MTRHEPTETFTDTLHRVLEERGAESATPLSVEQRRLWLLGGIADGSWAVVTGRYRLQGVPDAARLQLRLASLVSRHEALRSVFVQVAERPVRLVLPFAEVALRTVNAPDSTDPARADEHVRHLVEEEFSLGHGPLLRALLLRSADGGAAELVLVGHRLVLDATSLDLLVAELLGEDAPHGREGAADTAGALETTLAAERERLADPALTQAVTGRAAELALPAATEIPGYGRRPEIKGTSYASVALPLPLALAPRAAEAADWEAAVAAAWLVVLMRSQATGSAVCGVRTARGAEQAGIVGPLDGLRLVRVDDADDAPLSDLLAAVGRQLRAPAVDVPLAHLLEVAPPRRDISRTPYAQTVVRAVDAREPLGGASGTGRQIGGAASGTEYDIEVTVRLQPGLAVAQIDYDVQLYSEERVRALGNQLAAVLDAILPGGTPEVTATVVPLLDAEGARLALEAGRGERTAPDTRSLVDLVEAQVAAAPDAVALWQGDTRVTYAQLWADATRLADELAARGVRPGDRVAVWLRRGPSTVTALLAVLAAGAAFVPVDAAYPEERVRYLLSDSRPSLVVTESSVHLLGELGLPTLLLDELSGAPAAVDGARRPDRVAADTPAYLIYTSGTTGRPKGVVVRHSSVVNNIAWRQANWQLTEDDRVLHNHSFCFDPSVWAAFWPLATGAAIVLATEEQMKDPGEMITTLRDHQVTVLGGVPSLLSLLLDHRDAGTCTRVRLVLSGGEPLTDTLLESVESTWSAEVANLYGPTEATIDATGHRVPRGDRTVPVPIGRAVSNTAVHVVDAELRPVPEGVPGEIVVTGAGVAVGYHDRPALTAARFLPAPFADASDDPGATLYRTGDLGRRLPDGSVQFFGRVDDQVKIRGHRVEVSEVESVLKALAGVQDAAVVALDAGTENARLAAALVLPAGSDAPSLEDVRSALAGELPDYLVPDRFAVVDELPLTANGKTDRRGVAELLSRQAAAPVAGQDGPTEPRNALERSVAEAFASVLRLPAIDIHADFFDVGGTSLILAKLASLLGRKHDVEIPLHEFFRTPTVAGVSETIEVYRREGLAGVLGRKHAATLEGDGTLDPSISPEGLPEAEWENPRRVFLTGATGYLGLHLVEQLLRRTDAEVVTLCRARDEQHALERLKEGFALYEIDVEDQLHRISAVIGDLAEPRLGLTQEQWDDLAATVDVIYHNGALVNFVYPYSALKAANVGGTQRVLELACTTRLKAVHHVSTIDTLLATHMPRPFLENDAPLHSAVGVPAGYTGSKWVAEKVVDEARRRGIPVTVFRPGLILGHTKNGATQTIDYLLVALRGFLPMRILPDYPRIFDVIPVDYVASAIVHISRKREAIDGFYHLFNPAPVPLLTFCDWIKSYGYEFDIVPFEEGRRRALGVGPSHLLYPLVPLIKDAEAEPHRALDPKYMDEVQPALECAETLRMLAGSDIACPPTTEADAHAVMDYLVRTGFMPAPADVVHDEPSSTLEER

COc1c(C)cc(C[C@H](N)C(=O)O)cc1O [3-OH-5-Me-O-Me-Tyr] was tested, and the “MS of dual Pictet-Spengler product 16” value (SfmC) was “Dual Pictet-Spengler reactions catalyzed SfmC”.
In the case of NC(=O)c1ccc[n+]([C@@H]2O[C@H](COP(=O)(O)OP(=O)(O)OC[C@H]3O[C@@H](n4cnc5c(N)ncnc54)[C@H](OP(=O)(O)O)[C@@H]3O)[C@@H](O)[C@H]2O)c1 [NADP^+], the “X-ray crystal structure (co-crystallisation)” value (NapW [1]) is reported as “We further obtained the structure of NapW·NADP^+ binary complex by co-crystallizing NapW, NADP(H)”.
With COc1cc2c(cc1O)CCN[C@]21CS[C@@H]2c3c(OC(C)=O)c(C)c4c(c3[C@H](COC1=O)N1[C@@H]2[C@H]2c3c(cc(C)c(OC)c3O)C[C@@H]([C@@H]1O)N2C)OCO4 [compound 7, ET-743] the “HPLC and MS of reduction to 8” value (homO1a) was “each of the five SDRs originated from NDM or SFM-A producer could effectively catalyze”, the “HPLC and MS of reduction to 8” value (SfmO1) was “each of the five SDRs originated from NDM or SFM-A producer could effectively catalyze” and the “HPLC of reduction to 8” value (SDR-Cs) was “most proteins can catalyze reductive reaction of THIQ compounds except that SDR-Li and SDR-Ss”. The “HPLC and MS of reduction to 8” value (homW) was “each of the five SDRs originated from NDM or SFM-A producer could effectively catalyze”, the “HPLC and MS of reduction to 8” value (homO1b) was “each of the five SDRs originated from NDM or SFM-A producer could effectively catalyze” and the “HPLC of reduction to 8” value [2] was “most proteins can catalyze reductive reaction of THIQ compounds except that SDR-Li and SDR-Ss”. The “HPLC of reduction to 8” value (SDR-Pb) was “most proteins can catalyze reductive reaction of THIQ compounds except that SDR-Li and SDR-Ss”, the “HPLC of reduction to 8” value (SDR-Mb) was “most proteins can catalyze reductive reaction of THIQ compounds except that SDR-Li and SDR-Ss” and the “HPLC and MS of reduction to 8” value (NapW [3]) was “each of the five SDRs originated from NDM or SFM-A producer could effectively catalyze”.
